According to paper PMC8878324, “Evaluation of New Antimicrobial Agents Based on tris(1H-Indol-3-yl)methylium Salts: Activity, Toxicity, Suppression of Experimental Sepsis in Mice” (Pharmaceuticals, 2022):
Values after ≈ are worked out from the molar mass of the structure shown.

What was measured:
[1] = Cytotoxic activity, MTT assay; type: cell-based, human; details: human, HPF-hTERT
Procedure: The cytotoxic activity of the compounds was evaluated on the healthy donor (postnatal) human fibroblasts immortalized by transfection of the hTERT gene of the catalytic component of telomerase (hereinafter HPF-hTERT) that were obtained from N.N. Blokhin Russian Cancer Research Center. HFC-hTERT cells were cultured in Dulbecco’s modified medium (DMEM) containing 2 mM of L-glutamine, 10% fetal calf serum, 100 U/mL of penicillin and 100 μg/mL of streptomycin. Incubation was performed in a humidified atmosphere of 5% CO2 at 37 °C. In the experiment, we used cells in the logarithmic growth phase. To study the cytotoxicity of compounds, 190 μL of cell suspension (~2 thousand cells per well) was added to the wells of 96-well plates and incubated for 16 h. On the day of the experiment, serial dilutions of the test compounds were prepared in DMSO (stock solution—10 mM in 100% DMSO). Further dilutions were conducted in a nutrient medium. The final concentrations of compounds in the experiment were in a concentration range from 0.0025 to 50 μM. The final concentration of DMSO was 1% or less. Each concentration was presented in 3 repetitions. […] The cells were incubated with the test compounds for 72 h. After the end of incubation, 20 μL of MTT solution in growth medium (5 mg/mL) was added to the wells. The cells were incubated for 2 h until a purple color developed, after which the culture medium was removed. DMSO was added to the wells, and the sediment was suspended. Optical density was measured with a Thermo Scientific Multiscan FC spectrophotometer at 570 nm. The values of optical density in wells without addition of test compounds (control) were taken as 100% cell survival. The percentage of survival of cells incubated with the test compounds was calculated by dividing the optical density in the corresponding well (average of 3 independent measurements) by the optical density in the control. The concentration of drugs causing 50% cell death (IC50) was evaluated and expressed in μg/mL.

[2] = tested on: Candida albicans ATCC 14053; assay: MIC by broth microdilution (RPMI 1640); type: cell-based; details: ATCC14053
Procedure: (§1) We have tested the antimicrobial activity in vitro of over 100 tris(indolyl)methane derivatives against 16 strains of Gram-positive, Gram-negative bacteria and fungi including either sensitive or drug-resistant strains from ATCC, as well as resistant clinical isolates from the culture collection of the Laboratory for Control of Hospital Infections (Sechenov University, Moscow, Russia). The minimum inhibitory concentrations (MICs) were determined by the microdilution method in a cation-adjusted Müller–Hinton medium for bacteria and in a liquid culture medium RPMI 1640 with L-glutamine without sodium bicarbonate for fungi in accordance with the requirements of the Institute of Clinical and Laboratory Standards (CLSI/NCCLS). […] As a rule, their activity against Gram-negative bacteria was usually not that high. […] For comparison, the antimicrobial activity of prototype 4 is shown. The antibacterial antibiotic levofloxacin and the antifungal amphotericin B were used as reference drugs (Table 1).
(§2) The synthesis of compounds and the scheme of their preparation and purification, as well as physicochemical characteristics, were described earlier. To evaluate the biological activity in vitro, the compounds were dissolved in DMSO at a concentration of 2.0–6.4 mg/mL, followed by preparation of two-fold dilutions in the same solvent, if necessary. The solutions were further diluted in an aqueous medium for the final concentration of DMSO not to exceed 1%, and the concentration of the compounds ranged from 64.0 to 0.13 μg/mL. To study compounds in vivo, solutions for intravenous administration in 5% glucose solution were prepared. Solutions were sterilized by filtration through 0.22 µm filters (Millipore, Burlington, MA, USA).
(§3) Strains of Gram-positive, Gram-negative bacteria and fungi including sensitive or drug-resistant strains from ATCC, as well as resistant clinical isolates from the culture collection of the Laboratory for Control of Hospital Infections (Sechenov University, Moscow, Russia), were used. Clinical isolates of Gram-positive bacteria Staphylococcus aureus 5 (MRSA), Staphylococcus aureus 10, Staphylococcus aureus 100KC (MRSA), Staphylococcus epidermidis 533, Staphylococcus haemoliticus 585 and Enterococcus faecium 569, as well as collection cultures of Gram-positive bacteria Staphylococcus aureus ATCC 700699, Staphylococcus aureus ATCC 25923, Staphylococcus aureus ATCC 3798 and collection cultures of Gram-negative bacteria Escherichia coli ATCC 25922, Klebsiella pneumoniae ATCC 13883, Proteus vulgaris ATCC 13315, Salmonella cholerasuis ATCC 14028, Pseudomonas aeruginosa ATCC 27853 and collection cultures of the yeast Candida albicans ATCC 14053 and the fungi Aspergillus niger ATCC 16404 were used. To grow the microorganisms, we used Trypticase Soy Agar (TSA, Sigma-Aldrich Co., Burlington, MA, USA). Trypticase Soy Agar, BBL, was used for cultivation of Staphylococcus spp. and E. coli. For cultivation of Enterococcus spp. and P. aeruginosa we used a ready-made dry medium Columbia Agar Base, BBL. The media were sterilized by autoclaving at 121 °C for 15 min. Yeast culture C. albicans was grown on Sabouraud agar (peptone—10 g, glucose—40 g, agar—20 g, distilled water—1 L, pH 6.0), and filamentous fungi A. niger was grown on potato–glucose agar (potatoes—200 g, glucose—20 g, agar—15 g, distilled water—1 L, pH 5.5–6.0).
(§4) To determine the antibacterial effect, a liquid Müller–Hinton medium (Becton, Dickinson and Company, Cockeysville, MD, USA) was used; to determine the effect of compounds on fungi we used RPMI 1640 medium with L-glutamine, without sodium bicarbonate, which was prepared from a dry medium (ICN Biomedicals Inc., Costa Mesa, CA, USA) by dilution in distilled water, subsequent buffering with 0.165 M of morpholinepropanesulfonic acid (MOPS, Acros Organics B.V.B.A., Morris Plains, NJ, USA) and adjusting the pH of the medium to 7.0 by adding 1 N of NaOH solution. […]

[3] = tested on: Aspergillus niger ATCC 16404; assay: MIC by broth microdilution (RPMI 1640); type: cell-based; details: ATCC16404
Procedure: as §1, §2, §3, §4

[4] = tested on: Pseudomonas aeruginosa ATCC 27853; assay: MIC by broth microdilution; type: cell-based; details: ATCC27853
Procedure: as §1, §2, §3, §4

[5] = tested on: Staphylococcus aureus 100KC; assay: MIC by broth microdilution; type: cell-based; details: Staphylococcus aureus 100KC (MRSA)
Procedure: as §1, §2, §3, §4

Enterococcus faecium 569 = assay: MIC by broth microdilution; type: cell-based; details: Enterococcus faecium 569
Procedure: as §1, §2, §3, §4

[6] = tested on: Klebsiella pneumoniae ATCC 13883; assay: MIC by broth microdilution; type: cell-based; details: ATCC13883
Procedure: as §1, §2, §3, §4

[7] = tested on: Staphylococcus haemoliticus 585; assay: MIC by broth microdilution; type: cell-based; details: Staphylococcus haemoliticus 585
Procedure: as §1, §2, §3, §4

[8] = tested on: Staphylococcus epidermidis 533; assay: MIC by broth microdilution; type: cell-based
Procedure: as §1, §2, §3, §4

Staphylococcus aureus 10 = assay: MIC by broth microdilution; type: cell-based
Procedure: as §1, §2, §3, §4

[9] = tested on: Staphylococcus aureus ATCC 25923; assay: MIC by broth microdilution; type: cell-based; details: ATCC25923
Procedure: as §1, §2, §3, §4

[10] = tested on: Salmonella cholerasuis ATCC 14028; assay: MIC by broth microdilution; type: cell-based; details: ATCC14028
Procedure: as §1, §2, §3, §4

Staphylococcus aureus 5 = assay: MIC by broth microdilution; type: cell-based; details: Staphylococcus aureus 5 (MRSA)
Procedure: as §1, §2, §3, §4

[11] = tested on: Staphylococcus aureus ATCC 3798; assay: MIC by broth microdilution; type: cell-based; details: ATCC3798
Procedure: as §1, §2, §3, §4

[12] = tested on: Escherichia coli ATCC 25922; assay: MIC by broth microdilution; type: cell-based; details: ATCC25922
Procedure: as §1, §2, §3, §4

[13] = tested on: Proteus vulgaris ATCC 13315; assay: MIC by broth microdilution; type: cell-based; details: ATCC13315
Procedure: as §1, §2, §3, §4

[14] = tested on: Staphylococcus aureus ATCC 700699; assay: MIC by broth microdilution; type: cell-based; details: ATCC700699
Procedure: as §1, §2, §3, §4

Gram-positive bacteria = assay: MIC against Gram-positive bacteria; type: cell-based
Procedure: as §1
(§5) The minimum inhibitory concentrations (MIC) for Gram-positive and Gram-negative bacteria were determined by two-fold serial microdilution method in a cation-adjusted Müller–Hinton medium for bacteria and in a liquid culture medium RPMI 1640 with L-glutamine without sodium bicarbonate for fungi in accordance with the requirements of the Institute of Clinical and Laboratory Standards (CLSI/NCCLS). The antibacterial antibiotic levofloxacin and the antifungal antibiotic amphotericin B from Sigma-Aldrich were used as reference drugs.

[15] = tested on: yeast (Candida albicans) and fungi (Aspergillus niger); assay: Antifungal activity; type: cell-based; details: Candida albicans and Aspergillus niger
Procedure: as §1, §5

Row | Structure (SMILES) | IC50 at 72 h [1] [µg/mL] | MIC [2] [µg/mL] | MIC [3] [µg/mL] | MIC [4] [µg/mL] | MIC [5] [µg/mL] | MIC (Enterococcus faecium 569) [µg/mL] | MIC [6] [µg/mL] | MIC [7] [µg/mL] | MIC [8] [µg/mL] | MIC (Staphylococcus aureus 10) [µg/mL] | MIC [9] [µg/mL] | MIC [10] [µg/mL] | MIC (Staphylococcus aureus 5) [µg/mL] | MIC [11] [µg/mL] | MIC [12] [µg/mL] | MIC [13] [µg/mL] | MIC [14] [µg/mL] | MIC (Gram-positive bacteria) [µg/mL] | MIC [15] [µg/mL]
1 | C[C@@H]1[C@H](O)[C@@H](C)/C=C/C=C/C=C/C=C/C=C/C=C/C=C/[C@H](O[C@@H]2O[C@H](C)[C@@H](O)[C@H](N)[C@@H]2O)C[C@@H]2O[C@](O)(C[C@@H](O)C[C@@H](O)[C@H](O)CC[C@@H](O)C[C@@H](O)CC(=O)O[C@H]1C)C[C@H](O)[C@H]2C(=O)O [Amphotericin B, amphotericin B, reference compound] | 0.7 (≈ 0.758 µM) | 1 (≈ 1.08 µM) | 1 (≈ 1.08 µM) |  |  |  |  |  |  |  |  |  |  |  |  |  |  |  | 
2 | CCCn1cc([C+](c2cn(CCC)c3ccccc23)c2cn(CCC)c3ccccc23)c2ccccc21.[Cl-] [Compound 4, tris(1-propyl-1H-indol-3-yl) methylium chloride] | 0.07 | 1 | 2 | 64 | 0.5 | 1 | > 64 | 0.5 | 0.13 | 0.25 | 0.25 | 32 | 0.5 | 0.25 | 32 | 1 | 0.25 | 0.25 | 2
